Where “and” joins values, the source holds several entries; their conditions need not be identical. Identical values can stand only once. Like-named read-outs stand apart in the source and are kept apart here.
Experiments:
recombinant human AChE [1] = target: T1, recombinant human AChE (Homo sapiens, UniProt P22303); assay: biochemical; type: biochemical; conditions: for AC50: AC50 (uM)
recombinant human AChE [2] = target: T1, recombinant human AChE; assay: biochemical
[3] = target: AChE in neural stem cells (Homo sapiens, UniProt P22303); assay: cell-based
Sequence of AChE in neural stem cells (P22303 32-614): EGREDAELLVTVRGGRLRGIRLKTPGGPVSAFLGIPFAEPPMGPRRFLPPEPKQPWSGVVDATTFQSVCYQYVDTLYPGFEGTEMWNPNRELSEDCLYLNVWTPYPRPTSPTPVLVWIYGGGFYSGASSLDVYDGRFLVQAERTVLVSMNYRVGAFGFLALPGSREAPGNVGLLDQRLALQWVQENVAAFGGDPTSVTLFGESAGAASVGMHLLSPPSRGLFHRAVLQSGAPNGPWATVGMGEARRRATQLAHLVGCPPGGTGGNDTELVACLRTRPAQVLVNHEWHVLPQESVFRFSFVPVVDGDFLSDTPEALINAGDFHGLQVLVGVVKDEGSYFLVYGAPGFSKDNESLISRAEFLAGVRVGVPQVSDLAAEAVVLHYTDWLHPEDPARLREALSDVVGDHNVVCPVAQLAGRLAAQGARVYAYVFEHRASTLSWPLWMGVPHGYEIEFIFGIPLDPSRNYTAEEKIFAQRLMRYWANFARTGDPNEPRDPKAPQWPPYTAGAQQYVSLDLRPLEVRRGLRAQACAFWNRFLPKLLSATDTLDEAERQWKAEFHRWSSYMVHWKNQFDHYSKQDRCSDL

[4] = target: AChE in neural stem cell spheroids (Homo sapiens, UniProt P22303); assay: cell-based; conditions: potency (IC50)
Sequence of AChE in neural stem cell spheroids (P22303 32-614): as above

recombinant human AChE [5] = target: T1, recombinant human AChE
recombinant human AChE [6] = target: T1, recombinant human AChE; assay: biochemical; remark: listed apart in the source
AChE in SH-SY5Y cells = AChE in SH-SY5Y cells (Homo sapiens, UniProt P22303); assay: cell-based
Sequence of AChE in SH-SY5Y cells (P22303 32-614): as above

recombinant human AChE [7] = target: T1, recombinant human AChE; assay: biochemical; remark: listed apart in the source
[8] = target: AChE in SH-SY5Y spheroids (Homo sapiens, UniProt P22303); assay: cell-based; conditions: potency (IC50)
Sequence of AChE in SH-SY5Y spheroids (P22303 32-614): as above

[9] = potency (IC50), Enzyme with microsomes
[10] = Neural stem cell spheroid (24 h)
[11] = Neural stem cell spheroid (48 h)
[12] = potency (IC50), SH-SY5Y cells monolayer
Wherever IR or R is given: key: Reversible (R); Irreversible (IR); ND, not detected in enzyme-based AChE inhibition assay from current study.

T1 sequence (P22303 32-614): as above

| SMILES | AC50 (recombinant human AChE [1]) | IC50 (recombinant human AChE [2]; [9]) [µM] | IC50 [3] [µM] | IC50 [4, 10] [µM] | IC50 [4, 11] [µM] | CC-v2 (curve classes) (recombinant human AChE [5]) | Efficacy (recombinant human AChE [5]) | CC-v2 (curve classes) (recombinant human AChE [6]) | Efficacy (recombinant human AChE [6]) | IC50 (recombinant human AChE [6]; potency (IC50), Enzyme) [µM] | CC-v2 (curve classes) (AChE in SH-SY5Y cells) | IC50 (AChE in SH-SY5Y cells; IC50 (uM)) | IC50 (AChE in SH-SY5Y cells; [12]) [µM] | IC50 (recombinant human AChE [7]) [µM] | IC50 ([8]; SH-SY5Y spheroids (24 h)) [µM] | IC50 ([8]; SH-SY5Y spheroids (48 h)) [µM] | IR or R (recombinant human AChE [1]) | reversibility of AChE inhibition (result in words) (recombinant human AChE [1]) | IC50 (recombinant human AChE [2]; IC50 (uM)) | IC50 (recombinant human AChE [6]; read-out: IC50) [µM] |
| --- | --- | --- | --- | --- | --- | --- | --- | --- | --- | --- | --- | --- | --- | --- | --- | --- | --- | --- | --- | --- |
| CS/C(C)=N\OC(=O)N(C)SN(C)C(=O)O/N=C(\C)SC [Thiodicarb] | 4.44 µM and 3.95 µM (2×) and 3.14 µM and 6.27 µM and 5.59 µM and 1.57 µM and 1.98 µM | 5.48 ± 1.36 | 5.43 ± 0.92 | 7.63 ± 1.05 | 7.8 ± 2.18 | -2.1 | -115.189 | -1.1 | -104.676 | 7.03 | -1.1 | 1.42 µM and 1.26 µM and 1.12 µM | 2.81 ± 0.32 | 3.97 ± 0.46 | 1.58 ± 0.57 | 2.62 ± 0.47 | – | – | – | – |
| CNC(=O)ON=C(CSC)C(C)(C)C [Thiofanox] | 2.8 µM and 4.44 µM and 4.98 µM and 3.95 µM and 2.22 µM and 1.4 µM and 1.98 µM | 2.59 ± 0.17 | 4.83 ± 0.82 | 2.83 ± 0.59 | 3.64 | -1.1 | -91.728 | -1.1 | -92.082 | 1.91 ± 0.26 | -1.1 | 1.59 µM and 1.78 µM | 3.04 ± 0.41 | 3.18 ± 0.59 | 6.89 ± 6.18 | 3.46 ± 0.86 | – | – | – | – |
| CCN(CC)CCOc1ccc2c(c1)C(=O)c1cc(OCCN(CC)CC)ccc1-2 [Tilorone, reference compound] | 6.85 µM (2×) and 6.11 µM (2×) and 4.85 µM and 7.69 µM and 9.68 µM | 5.46 | 5.88 | 19.6 | 25.7 | -1.1 | -84.739 | -1.1 | -92.014 | 4.18 | -1.1 | 0.977 µM and 1.1 µM and 0.776 µM | 1.77 | 5.52 ± 1.16 | 1.34 | 1.42 | R | reversible | – | – |
| CCCCSP(=O)(SCCCC)SCCCC [Tribufos] | 88.5 µM | 3.66 | 39.8 | 31.4 | 14 | -1.1 | – | -2.2 and 4 | – | 35.3 | -2.2 and -1.2 | 28.3 µM and 31 µM and 17.8 µM and 27.6 µM and 15.9 µM and 34.8 µM | 15.3 | 25.1 ± 2.88 | 12.2 | 12 | – | – | 5.02 µM and 5.51 µM | 35.6 |

Reference: paper PMC8041433 (Environmental Health Perspectives, 2021)
